# From PubChem BioAssay (NCI)
#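 Exposure lasted 48 hours, with cells grown in 96-well plates and compounds tested at five concentrations. At the GI50, growth is halved. TGI denotes the concentration required for complete inhibition of growth.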
# System: COLO 205 colon
# Experiment: DTP human tumour cell line panel, 48 h
Structure (SMILES),GI50,TGI [µM]
CN1CCN(c2ccc(Nc3ncc4cc(C#N)c(=O)n(C5CCCC5)c4n3)cc2)CC1,0.797 µM,> 100
C=C1CC[C@@H](C(C)C)C[C@@H]2[C@H]([C@H](O)C[C@]2(C)O)[C@@]2(C)CC[C@@H]1O2,20 µM,34.9
Nc1ccc2[nH]cc(CCC(=O)O)c2c1,–,> 100
OCC(O)CNc1ccnc2cc(Cl)ccc12 (centres undefined),–,> 100
Cc1cccc(C(C)C)c1NC(=O)C(=O)C(C(=O)c1ccccc1F)C1OC(=O)c2ccccc21 (centres undefined),–,41
O=C(N/N=C/c1c(Cl)cccc1Cl)c1ccc(C(F)(F)F)nc1Nc1cccc(C(F)(F)F)c1,0.67 µM,2.59
O=C(NO)c1ccc(CN(c2cnccn2)c2cnccn2)cc1,2.96 µM,8.17
Cc1ccc(Nc2nnc(-c3ccc4c(c3)OCO4)o2)c(C)c1,–,> 100
CCCCCc1ccc(S(=O)(=O)Nc2cc(-c3csc(NC(C)=O)n3)ccc2N2CCN(C)CC2)cc1,5.16 µM,11.8
Cc1cccc(C)c1NC(=O)C(=O)CC(=O)c1cccc([N+](=O)[O-])c1,–,> 100
Cc1ccc(S(=O)(=O)NC(=O)NC2=NC(C)(C)N(c3ccc(Cl)c(Cl)c3)C(N)=N2)cc1,–,> 100
S=C1SC2=Nc3ccccc3CN2C2=NCCN12,54.4 µM,> 100
O=C(O)CN(c1ccccc1)S(=O)(=O)c1ccc([N+](=O)[O-])cc1,–,> 100
Clc1cc(Cl)cc(Nc2ccc3cc(OCCCN4CCOCC4)ccc3n2)c1,1.78 µM,3.67
COc1ccc2c3c(Nc4ccc(/C(C)=N/O)cc4)[nH]c4ccccc4c-3c(N=O)c2c1,19.5 µM,34.9
Nc1nc(N)c2cc(CNc3ccc(C(=O)NC(CC(=O)O)C(=O)O)c(Cl)c3)ccc2n1 (centres undefined),0.462 µM,> 500
CCN(CC)c1cc2oc3cc(N)cc(=N)c-3nc2cc1C,1.9 µM,3.95

Structure (SMILES),GI50,TGI [µM]
CC(=O)OC1C2CCC1C1C2C2(Cl)C(Cl)=C(Cl)C1(Cl)C2(Cl)Cl (centres undefined),–,28.3
CC(C(=O)n1c2ccccc2c2ccccc21)N(c1ccccc1)c1ccccc1 (centres undefined),–,32
CCOC(=O)Cn1c(=O)n(C)c(=O)c2c1ncn2Cc1ccccc1,–,> 100
CC(C)(C)OC(=O)N1N=NC2C1C1CC(OCc3ccccc3)(OCc3ccccc3)C2O1 (centres undefined),–,> 100
O=C1CSC(c2ccc(-c3nc4ccccc4s3)cc2)=N1,> 100 µM,> 100
Cc1ncc([N+](=O)[O-])n1CCNS(=O)(=O)CCCn1ncnc1[N+](=O)[O-],–,> 100
CCC(=O)Nc1ccc(N=NN(C)C)cc1,–,> 100
O=c1c2ccccc2nc(-c2ccccc2)n1NC(=S)Nc1ccccc1,–,> 100
CCOC(=O)/C(=C/c1cccc(C#N)c1)N(CC)CC,–,> 100
C=CCN1CC2CON(C(=O)C(OC)(c3ccccc3)C(F)(F)F)C2C1C(C)C (centres undefined),26 µg/mL,–
O=S1(=O)OCCOS(=O)(=O)C1Cl,–,> 100
CCOc1ccccc1NC(=O)C(=O)Cc1nc2ccccc2s1,–,> 100
CO/N=C(/C)c1cccc(Nc2cc(-c3ccccc3)nc3ccc(OC)cc23)c1,33.1 µM,97.8
Cc1cccc(N=C2NC(=O)C(CC(=O)Nc3cccc(C)c3C)S2)c1 (centres undefined),–,> 100
CN(C)CCSc1nccc(-c2cc3ccccc3s2)n1,–,35.1
O=C1C(Cl)=C(Nc2ccccc2O)C(=O)N1Cc1ccccc1,24.2 µM,46.8

# System: SF-268 CNS
# Experiment: DTP human tumour cell line panel, 48 h
Structure (SMILES),GI50,TGI [µM]
CN1CCN(c2ccc(Nc3ncc4cc(C#N)c(=O)n(C5CCCC5)c4n3)cc2)CC1,1.48 µM,4.95
C=C1CC[C@@H](C(C)C)C[C@@H]2[C@H]([C@H](O)C[C@]2(C)O)[C@@]2(C)CC[C@@H]1O2,16.5 µM,30.1
Nc1ccc2[nH]cc(CCC(=O)O)c2c1,–,> 100
OCC(O)CNc1ccnc2cc(Cl)ccc12 (centres undefined),–,> 100
Cc1cccc(C(C)C)c1NC(=O)C(=O)C(C(=O)c1ccccc1F)C1OC(=O)c2ccccc21 (centres undefined),–,92.9
O=C(N/N=C/c1c(Cl)cccc1Cl)c1ccc(C(F)(F)F)nc1Nc1cccc(C(F)(F)F)c1,1.22 µM,> 29.3
O=C(NO)c1ccc(CN(c2cnccn2)c2cnccn2)cc1,16.3 µM,32.7
Cc1ccc(Nc2nnc(-c3ccc4c(c3)OCO4)o2)c(C)c1,–,> 100
CCCCCc1ccc(S(=O)(=O)Nc2cc(-c3csc(NC(C)=O)n3)ccc2N2CCN(C)CC2)cc1,5.52 µM,11.6
Cc1cccc(C)c1NC(=O)C(=O)CC(=O)c1cccc([N+](=O)[O-])c1,–,> 100
Cc1ccc(S(=O)(=O)NC(=O)NC2=NC(C)(C)N(c3ccc(Cl)c(Cl)c3)C(N)=N2)cc1,–,> 100
S=C1SC2=Nc3ccccc3CN2C2=NCCN12,> 100 µM,> 100
Clc1cc(Cl)cc(Nc2ccc3cc(OCCCN4CCOCC4)ccc3n2)c1,2.9 µM,> 100
COc1ccc2c3c(Nc4ccc(/C(C)=N/O)cc4)[nH]c4ccccc4c-3c(N=O)c2c1,1.07 µM,34.9
C/C(CCn1[nH]c(=O)ccc1=O)=N\OCCCc1ccccc1,–,> 100
Nc1nc(N)c2cc(CNc3ccc(C(=O)NC(CC(=O)O)C(=O)O)c(Cl)c3)ccc2n1 (centres undefined),0.189 µM,–
CCN(CC)c1cc2oc3cc(N)cc(=N)c-3nc2cc1C,3.26 µM,18.2

Structure (SMILES),GI50,TGI [µM]
CC(=O)OC1C2CCC1C1C2C2(Cl)C(Cl)=C(Cl)C1(Cl)C2(Cl)Cl (centres undefined),–,32.6
CC(C(=O)n1c2ccccc2c2ccccc21)N(c1ccccc1)c1ccccc1 (centres undefined),–,36.2
CCOC(=O)Cn1c(=O)n(C)c(=O)c2c1ncn2Cc1ccccc1,–,> 100
CC(C)(C)OC(=O)N1N=NC2C1C1CC(OCc3ccccc3)(OCc3ccccc3)C2O1 (centres undefined),–,> 100
Cc1ncc([N+](=O)[O-])n1CCNS(=O)(=O)CCCn1ncnc1[N+](=O)[O-],–,> 100
CCC(=O)Nc1ccc(N=NN(C)C)cc1,–,> 100
O=c1c2ccccc2nc(-c2ccccc2)n1NC(=S)Nc1ccccc1,–,> 100
CCOC(=O)/C(=C/c1cccc(C#N)c1)N(CC)CC,–,> 100
C=CCN1CC2CON(C(=O)C(OC)(c3ccccc3)C(F)(F)F)C2C1C(C)C (centres undefined),70.5 µg/mL,–
O=S1(=O)OCCOS(=O)(=O)C1Cl,–,> 100
Oc1ccc(Br)cc1C=Nc1ccc(N=Cc2cc(Br)ccc2O)cc1,–,> 100
CCOc1ccccc1NC(=O)C(=O)Cc1nc2ccccc2s1,–,> 100
CO/N=C(/C)c1cccc(Nc2cc(-c3ccccc3)nc3ccc(OC)cc23)c1,3.64 µM,14.1
Cc1cccc(N=C2NC(=O)C(CC(=O)Nc3cccc(C)c3C)S2)c1 (centres undefined),–,> 100
O=C(O)CSc1n[nH]c(Cc2ccccc2)n1,–,> 100
O=C1C(Cl)=C(Nc2ccccc2O)C(=O)N1Cc1ccccc1,20.8 µM,52.2

# System: SNB-19 CNS
# Experiment: DTP human tumour cell line panel, 48 h
Structure (SMILES),GI50 [µM],TGI [µM]
CN1CCN(c2ccc(Nc3ncc4cc(C#N)c(=O)n(C5CCCC5)c4n3)cc2)CC1,1.77,18.7
C=C1CC[C@@H](C(C)C)C[C@@H]2[C@H]([C@H](O)C[C@]2(C)O)[C@@]2(C)CC[C@@H]1O2,19.2,33.2
Nc1ccc2[nH]cc(CCC(=O)O)c2c1,–,> 100
OCC(O)CNc1ccnc2cc(Cl)ccc12 (centres undefined),–,> 100
Cc1cccc(C(C)C)c1NC(=O)C(=O)C(C(=O)c1ccccc1F)C1OC(=O)c2ccccc21 (centres undefined),–,29
O=C(N/N=C/c1c(Cl)cccc1Cl)c1ccc(C(F)(F)F)nc1Nc1cccc(C(F)(F)F)c1,1.55,> 100
O=C(NO)c1ccc(CN(c2cnccn2)c2cnccn2)cc1,17.7,72.5
Cc1ccc(Nc2nnc(-c3ccc4c(c3)OCO4)o2)c(C)c1,–,> 100
CCCCCc1ccc(S(=O)(=O)Nc2cc(-c3csc(NC(C)=O)n3)ccc2N2CCN(C)CC2)cc1,5.49,10.4
Cc1cccc(C)c1NC(=O)C(=O)CC(=O)c1cccc([N+](=O)[O-])c1,–,> 100
Cc1ccc(S(=O)(=O)NC(=O)NC2=NC(C)(C)N(c3ccc(Cl)c(Cl)c3)C(N)=N2)cc1,–,> 100
S=C1SC2=Nc3ccccc3CN2C2=NCCN12,> 100,> 100
O=C(O)CN(c1ccccc1)S(=O)(=O)c1ccc([N+](=O)[O-])cc1,–,> 100
